Assay results: paper PMC8364686, “Safety, tolerability, pharmacokinetics and pharmacodynamics of single oral doses of BI 187004, an inhibitor of 11beta-hydroxysteroid dehydrogenase-1, in healthy male volunteers with overweight or obesity” (Clinical Diabetes and Endocrinology, 2021)

Assay: Plasma pharmacokinetics of BI 187004 after single oral doses (LC–MS/MS)
Conditions: male, human, plasma, po
Experimental: This was a randomized, double-blind, placebo-controlled, single rising dose study conducted at a single center in Germany. […] Follow-up on an ambulatory basis was performed between 11 and 15 days after study drug administration. […] At the time of use the oral solution for dosing was prepared using the PFOS and a co-supplied aqueous solvent containing HP-beta-cyclodextrin 100 mg/mL. The lowest dose level solutions were prepared by further dilution of the lower concentration solution with additional solvent.
For each accepted run, the acceptance criteria for the calibration standards and quality controls were met.

## N#Cc1ccc2c(c1)[C@H]1CCCN(C(=O)c3ccc4[nH]cnc4c3)[C@H]1C2 [BI 187004]
2.5 mg, Plasma concentration gMean, 2.5 mg single oral, 2.5 h
  concentration at 2.5 h: 7.33 nM
2.5 mg, Plasma concentration gMean, 2.5 mg single oral, 3 h
  concentration at 3 h: 6.19 nM
2.5 mg, Plasma concentration gMean, 2.5 mg single oral, 4 h
  concentration at 4 h: 5.87 nM
2.5 mg, Plasma concentration gMean, 2.5 mg single oral, 5 h
  concentration at 5 h: 6.61 nM
2.5 mg, Plasma concentration gMean, 2.5 mg single oral, 6 h
  concentration at 6 h: 5.38 nM
2.5 mg, Plasma concentration gMean, 2.5 mg single oral, 10 h
  concentration at 10 h: 4.38 nM
2.5 mg, Plasma concentration gMean, 2.5 mg single oral, 12 h
  concentration at 12 h: 4.53 nM
2.5 mg, Plasma concentration gMean, 2.5 mg single oral, 24 h
  concentration at 24 h: 4.54 nM
2.5 mg, Plasma concentration gMean, 2.5 mg single oral, 48 h
  concentration at 48 h: 3.93 nM
2.5 mg, Plasma concentration, individual subjects, 2.5 mg single oral, planned time 8 h
  concentration at 8 h: 6.73 nM
2.5 mg, Plasma concentration, individual subjects, 2.5 mg single oral, planned time 10 h
  concentration at 10 h: 5.99 nM
2.5 mg, Plasma concentration, individual subjects, 2.5 mg single oral, planned time 12 h
  concentration at 12 h: 6.44 nM
2.5 mg, Plasma concentration, individual subjects, 2.5 mg single oral, planned time 24 h
  concentration at 24 h: 4.19 nM
2.5 mg, Plasma concentration, individual subjects, 2.5 mg single oral, planned time 36 h
  concentration at 36 h: 5.06 nM
2.5 mg, Plasma concentration, individual subjects, 2.5 mg single oral, planned time 48 h
  concentration at 48 h: 3.58 nM
2.5 mg, Plasma concentration, individual subjects, 2.5 mg single oral, planned time 72 h
  concentration at 72 h: 3.34 nM
2.5 mg, Plasma concentration, individual subjects, 2.5 mg single oral, planned time 96 h
  concentration at 96 h: 3.04 nM
5 mg
  AUC(0-inf): 2.5 µM·h
  AUC(0-t): 1.49 µM·h
  Cmax: 150 nM
  Tmax: 1 h
  Vd/F: 281 L
  half-life: 33.5 h
5 mg, C24 gMean (%gCV), 5 mg single oral dose
  concentration at 24 h: 30 nM
5 mg, Plasma concentration Mean, 5 mg single oral
  concentration at 0.5 h: 101 nM
5 mg, Plasma concentration Mean, 5 mg single oral, 1 h
  concentration at 1 h: 147 nM
5 mg, Plasma concentration Mean, 5 mg single oral, 1.5 h
  concentration at 1.5 h: 135 nM
5 mg, Plasma concentration Mean, 5 mg single oral, 2 h
  concentration at 2 h: 122 nM
5 mg, Plasma concentration Mean, 5 mg single oral, 2.5 h
  concentration at 2.5 h: 123 nM
5 mg, Plasma concentration Mean, 5 mg single oral, 3 h
  concentration at 3 h: 114 nM
5 mg, Plasma concentration Mean, 5 mg single oral, 4 h
  concentration at 4 h: 105 nM
5 mg, Plasma concentration Mean, 5 mg single oral, 5 h
  concentration at 5 h: 97.4 nM
5 mg, Plasma concentration Mean, 5 mg single oral, 6 h
  concentration at 6 h: 81.2 nM
5 mg, Plasma concentration Mean, 5 mg single oral, 8 h
  concentration at 8 h: 72.9 nM
5 mg, Plasma concentration Mean, 5 mg single oral, 10 h
  concentration at 10 h: 58 nM
5 mg, Plasma concentration Mean, 5 mg single oral, 12 h
  concentration at 12 h: 49.7 nM
5 mg, Plasma concentration Mean, 5 mg single oral, 24 h
  concentration at 24 h: 31 nM
5 mg, Plasma concentration Mean, 5 mg single oral, 36 h
  concentration at 36 h: 14.9 nM
5 mg, Plasma concentration Mean, 5 mg single oral, 48 h
  concentration at 48 h: 13.1 nM
5 mg, Plasma concentration Mean, 5 mg single oral, 72 h
  concentration at 72 h: 7.42 nM
5 mg, Plasma concentration Mean, 5 mg single oral, 96 h
  concentration at 96 h: 4.78 nM
5 mg, Plasma concentration Median, 5 mg single oral
  concentration at 0.5 h: 128 nM
5 mg, Plasma concentration Median, 5 mg single oral, 1 h
  concentration at 1 h: 141 nM
5 mg, Plasma concentration Median, 5 mg single oral, 1.5 h
  concentration at 1.5 h: 140 nM
5 mg, Plasma concentration Median, 5 mg single oral, 2 h
  concentration at 2 h: 126 nM
5 mg, Plasma concentration Median, 5 mg single oral, 2.5 h
  concentration at 2.5 h: 121 nM
5 mg, Plasma concentration Median, 5 mg single oral, 3 h
  concentration at 3 h: 113 nM
5 mg, Plasma concentration Median, 5 mg single oral, 4 h
  concentration at 4 h: 98.4 nM
5 mg, Plasma concentration Median, 5 mg single oral, 5 h
  concentration at 5 h: 98.1 nM
5 mg, Plasma concentration Median, 5 mg single oral, 6 h
  concentration at 6 h: 78.8 nM
5 mg, Plasma concentration Median, 5 mg single oral, 8 h
  concentration at 8 h: 71 nM
5 mg, Plasma concentration Median, 5 mg single oral, 10 h
  concentration at 10 h: 57.1 nM
5 mg, Plasma concentration Median, 5 mg single oral, 12 h
  concentration at 12 h: 50.3 nM
5 mg, Plasma concentration Median, 5 mg single oral, 24 h
  concentration at 24 h: 32.2 nM
5 mg, Plasma concentration Median, 5 mg single oral, 36 h
  concentration at 36 h: 15.5 nM
5 mg, Plasma concentration Median, 5 mg single oral, 48 h
  concentration at 48 h: 11.2 nM
5 mg, Plasma concentration Median, 5 mg single oral, 72 h
  concentration at 72 h: 6.1 nM
5 mg, Plasma concentration Median, 5 mg single oral, 96 h
  concentration at 96 h: 4.24 nM
5 mg, Plasma concentration gMean, 5 mg single oral
  concentration at 0.5 h: 63.7 nM
5 mg, Plasma concentration gMean, 5 mg single oral, 1 h
  concentration at 1 h: 144 nM
5 mg, Plasma concentration gMean, 5 mg single oral, 1.5 h
  concentration at 1.5 h: 134 nM
5 mg, Plasma concentration gMean, 5 mg single oral, 2 h
  concentration at 2 h: 121 nM
5 mg, Plasma concentration gMean, 5 mg single oral, 2.5 h
  concentration at 2.5 h: 122 nM
5 mg, Plasma concentration gMean, 5 mg single oral, 3 h
  concentration at 3 h: 113 nM
5 mg, Plasma concentration gMean, 5 mg single oral, 4 h
  concentration at 4 h: 104 nM
5 mg, Plasma concentration gMean, 5 mg single oral, 5 h
  concentration at 5 h: 96 nM
5 mg, Plasma concentration gMean, 5 mg single oral, 6 h
  concentration at 6 h: 79.9 nM
5 mg, Plasma concentration gMean, 5 mg single oral, 8 h
  concentration at 8 h: 71.8 nM
5 mg, Plasma concentration gMean, 5 mg single oral, 10 h
  concentration at 10 h: 56.8 nM
5 mg, Plasma concentration gMean, 5 mg single oral, 12 h
  concentration at 12 h: 48.5 nM
5 mg, Plasma concentration gMean, 5 mg single oral, 24 h
  concentration at 24 h: 30 nM
5 mg, Plasma concentration gMean, 5 mg single oral, 36 h
  concentration at 36 h: 14.2 nM
5 mg, Plasma concentration gMean, 5 mg single oral, 48 h
  concentration at 48 h: 12.5 nM
5 mg, Plasma concentration gMean, 5 mg single oral, 72 h
  concentration at 72 h: 7.05 nM
5 mg, Plasma concentration gMean, 5 mg single oral, 96 h
  concentration at 96 h: 4.6 nM
5 mg, Plasma concentration, individual subjects, 5 mg single oral, planned time 1 h
  concentration at 1 h: 112 nM
5 mg, Plasma concentration, individual subjects, 5 mg single oral, planned time 1.5 h
  concentration at 1.5 h: 144 nM
5 mg, Plasma concentration, individual subjects, 5 mg single oral, planned time 2 h
  concentration at 2 h: 127 nM
5 mg, Plasma concentration, individual subjects, 5 mg single oral, planned time 2.5 h
  concentration at 2.5 h: 122 nM
5 mg, Plasma concentration, individual subjects, 5 mg single oral, planned time 3 h
  concentration at 3 h: 118 nM
5 mg, Plasma concentration, individual subjects, 5 mg single oral, planned time 4 h
  concentration at 4 h: 99.5 nM
5 mg, Plasma concentration, individual subjects, 5 mg single oral, planned time 5 h
  concentration at 5 h: 96.9 nM
5 mg, Plasma concentration, individual subjects, 5 mg single oral, planned time 6 h
  concentration at 6 h: 80.6 nM
5 mg, Plasma concentration, individual subjects, 5 mg single oral, planned time 8 h
  concentration at 8 h: 72.1 nM
5 mg, Plasma concentration, individual subjects, 5 mg single oral, planned time 24 h
  concentration at 24 h: 35.1 nM
5 mg, Plasma concentration, individual subjects, 5 mg single oral, planned time –0.5 h
  concentration at -0.5 h: 90.2 nM
10 mg
  AUC(0-inf): 5.91 µM·h
  AUC(0-t): 4.38 µM·h
  Cmax: 502 nM
  Tmax: 1 h
  Vd/F: 169 L
  half-life: 23.7 h
10 mg, C24 gMean (%gCV), 10 mg single oral dose
  concentration at 24 h: 71.3 nM
10 mg, Plasma concentration Mean, 10 mg single oral
  concentration at 0.5 h: 365 nM
10 mg, Plasma concentration Mean, 10 mg single oral, 1 h
  concentration at 1 h: 429 nM
10 mg, Plasma concentration Mean, 10 mg single oral, 1.5 h
  concentration at 1.5 h: 438 nM
10 mg, Plasma concentration Mean, 10 mg single oral, 2 h
  concentration at 2 h: 382 nM
10 mg, Plasma concentration Mean, 10 mg single oral, 2.5 h
  concentration at 2.5 h: 376 nM
10 mg, Plasma concentration Mean, 10 mg single oral, 3 h
  concentration at 3 h: 339 nM
10 mg, Plasma concentration Mean, 10 mg single oral, 4 h
  concentration at 4 h: 346 nM
10 mg, Plasma concentration Mean, 10 mg single oral, 5 h
  concentration at 5 h: 277 nM
10 mg, Plasma concentration Mean, 10 mg single oral, 6 h
  concentration at 6 h: 260 nM
10 mg, Plasma concentration Mean, 10 mg single oral, 8 h
  concentration at 8 h: 213 nM
10 mg, Plasma concentration Mean, 10 mg single oral, 10 h
  concentration at 10 h: 182 nM
10 mg, Plasma concentration Mean, 10 mg single oral, 12 h
  concentration at 12 h: 146 nM
